The values that follow come from US20240050434A1, “HORMAD1 THERAPEUTICS” (Royal Cancer Hospital, priority 2020, published 2024).

Entries after “also recorded” stand apart in the source; their conditions may differ.

Assay [1] deals with RPE1 cells expressing a doxycycline-inducible HORMAD1 construct. Put plainly: Incucyte time-lapse confluence/proliferation in RPE1 cells with doxycycline-inducible HORMAD1. Format: cell-based. To be noted: for cellular growth / fitness of HORMAD1 expressing RPE1 cells versus vehicle-induced cells under drug: incucyte confluence, 200 nM BOS172722 or 20 nM AZD1152-HQPA 10 days, 3 μM BAY-1816032 14 days. As for the experimental part:
(§1) Cell confluence was analysed every 6 hours for 10 days, using incucyte software. Data are from 3 biological replicates and analysed using a two-way ANOVA. […] RPE1 cells expressing a doxycycline-inducible HORMAD1 expression construct were exposed to doxycycline or vehicle (H2O) and were exposed to 20 nM of the Aurora B inhibitor, AZD1152-HQPA. Cell confluence was analysed every 6 hours for 10 days, using incucyte software. Data are from 3 biological replicates and analysed using a two-way ANOVA. […] 7-10 days post drugging, cells were fixed, stained with SRB, and colonies were counted using Cell Profiler. […] 10 days post drugging, cells were fixed, stained with SRB, and colonies were counted using Cell Profiler. […] RPE1 cells expressing a doxycycline-inducible HORMAD1 expression construct were exposed to doxycycline or vehicle (H2O) and to increasing doses of the Aurora B inhibitor, AZD1152-HQPA. 7-10 days post drugging, cells were fixed, stained with SRB, and colonies were counted using Cell Profiler. […] SUM159 cells expressing a doxycycline-inducible HORMAD1 expression construct were exposed to doxycycline or vehicle (H2O) and to increasing doses of the Aurora B inhibitor, AZD1152-HQPA. 10 days post drugging, cells were fixed, stained with SRB, and colonies were counted using Cell Profiler.
RPE1 cells were reverse transfected with BUB1 or control siRNA particles for 3 days. Cell lysates were collected, and analysed by western blotting using anti-BUB1 and anti-β-ACTIN antibodies. […] RPE1 cells expressing a doxycycline-inducible HORMAD1 expression construct were exposed to doxycycline or vehicle, and were reverse transfected with BUB1 or control siRNA particles. 5 days post transfection, cellular viability was estimated using cell titer glo reagent and surviving fractions were calculated relative to DMSO treated cells. […] Statistical significance estimated using a one-way ANOVA with Sidak's correction. C. […] Cell lysates were collected, and analysed by SDS-PAGE and western blotting using anti-HORMAD1, anti-H3 and anti-BUB1 antibodies. […] 7-10 days post doxycycline induction, cells were fixed, stained with SRB, and cellular viability was estimated using SRB absorbance readings. […] Cells were fixed, stained with SRB, and cellular viability was estimated using SRB absorbance readings. […] Cells were imaged every 4 hours, and confluence was continually measured using incucyte software. […] Patient-derived organoids models were grown in culture and cell lysates collected and analysed using SDS-PAGE and western blotting using anti-HORMAD1 and anti-β-ACTIN antibodies. […] Cellular viability was estimated using cell titer glo reagent and surviving fractions were calculated relative to DMSO treated cells. […]

Assay [2] shares this test system. Put plainly: Clonogenic survival assay (SRB) in RPE1 cells with doxycycline-inducible HORMAD1. Format: cell-based. Particulars: for clonogenic survival / sensitivity of HORMAD1 expressing versus HORMAD1-negative RPE1 cells: increasing doses, 7-14 days, normalised to vehicle. As for the experimental part: as §1
RPE1 cells were reverse transfected with BUB1 or control siRNA particles for 3 days. Cell lysates were collected, and analysed by western blotting using anti-BUB1 and anti-β-ACTIN antibodies. […] RPE1 cells expressing a doxycycline-inducible HORMAD1 expression construct were exposed to doxycycline or vehicle, and were reverse transfected with BUB1 or control siRNA particles. 5 days post transfection, cellular viability was estimated using cell titer glo reagent and surviving fractions were calculated relative to DMSO treated cells. […] Statistical significance estimated using a one-way ANOVA with Sidak's correction. C. Western blot illustrating expression of HORMAD1 in wild-type RPE1 cells and RPE1 cells depleted of BUB1 using CRISPR. WT and BUB1 depleted RPE1 cells expressing a doxycycline-inducible HORMAD1 expression construct, were exposed to doxycycline or vehicle for 3 days. Cell lysates were collected, and analysed by SDS-PAGE and western blotting using anti-HORMAD1, anti-H3 and anti-BUB1 antibodies. […] WT and BUB1 depleted RPE1 cells expressing a doxycycline-inducible HORMAD1 expression construct were exposed to doxycycline or vehicle. 7-10 days post doxycycline induction, cells were fixed, stained with SRB, and cellular viability was estimated using SRB absorbance readings. […] Statistical significance estimated using a one-way ANOVA with Sidak's correction. […] RPE1 expressing a doxycycline-inducible HORMAD1 expression construct, were exposed to doxycycline or vehicle. […] Cells were fixed, stained with SRB, and cellular viability was estimated using SRB absorbance readings. […] Cells were imaged every 4 hours, and confluence was continually measured using incucyte software. Growth curves were plotted, based on confluence. Data represent 3 biological replicas. […] Patient-derived organoids models were grown in culture and cell lysates collected and analysed using SDS-PAGE and western blotting using anti-HORMAD1 and anti-β-ACTIN antibodies. […] Cellular viability was estimated using cell titer glo reagent and surviving fractions were calculated relative to DMSO treated cells. […] Left, dose response curves for each organoid.

As for `CCN(CCO)CCCOc1ccc2c(Nc3cc(CC(=O)Nc4cccc(F)c4)[nH]n3)ncnc2c1` [AZD1152-HQPA], the “cellular growth / fitness of HORMAD1 expressing RPE1 cells versus vehicle-induced cells under drug” value in assay [1] is on record as “marked decrease in cellular growth; also recorded: decreased cellular fitness”. Also, the “clonogenic survival / sensitivity of HORMAD1 expressing versus HORMAD1-negative RPE1 cells” value in assay [2] is “more effectively inhibited; also recorded: reduced clonogenic survival; also recorded: increased Aurora B inhibitor sensitivity”.
Consider `COc1cnccc1Nc1nc(-c2nn(Cc3c(F)cc(OCCO)cc3F)c3ccccc23)ncc1OC` [BAY-1816032], for which, in assay [1] (3 μM, 240 hours, incucyte), the “confluency reached, HORMAD1 expressing RPE1 cells” value is on record as “around 15%” and the “confluency reached, RPE1 cells without HORMAD1 expression” value is about 85%. The “cellular growth / fitness of HORMAD1 expressing RPE1 cells versus vehicle-induced cells under drug” value in assay [1] is listed as “decreased cellular fitness”. Also, the “reduction of clonogenic capacity of RPE1 cells in presence of HORMAD1 expression compared to RPE1 cells not expressing HORMAD1” value in assay [2] (10 days post drugging) is listed as 60%. In assay [2], the “clonogenic survival / sensitivity of HORMAD1 expressing versus HORMAD1-negative RPE1 cells” value was “increased cellular sensitivity”.
